Experimental data reported in ChEMBL document CHEMBL5338769, “Discovery of Norisoboldine Analogue III11 as a Novel and Potent Aryl Hydrocarbon Receptor Agonist for the Treatment of Ulcerative Colitis” (J Med Chem, 2023).
Calls of active or inactive are those of the source. No cut-off for these calls is given here.

Tests used:
Mus musculus [1] = experiment: Anti-colitis activity in DSS-induced ulcerative colitis C57BL/6 mouse model assessed as CD4+CD25+Foxp3+ Treg cell percentage in spleen at 100 mg/kg, po administered once a day for 10 days by flow cytometric analysis (reference value: 3.3%); type: functional; details: time 10 day
Mus musculus [2] = experiment: Anti-colitis activity in DSS-induced ulcerative colitis C57BL/6 mouse model assessed as CD4+CD25+Foxp3+ Treg cell percentage in mesenteric lymph nodes at 100 mg/kg, po administered once a day for 10 days by flow cytometric analysis (reference value: 4.5 %); type: functional; details: time 10 day
Mus musculus [3] = experiment: In vivo activation of AhR in C57BL/6 mouse assessed as increase in CYP1A1 mRNA expression at 100 mg/kg, po administered once a day for 10 days by qRT-PCR analysis; type: functional, organism-based; details: time 10.0 day
Mus musculus [4] = experiment: Anti-colitis activity in DSS-induced ulcerative colitis C57BL/6 mouse model assessed as increase in CD4+CD25+Foxp3+ Treg cell ratio in mesenteric lymph nodes at 40 mg/kg, po administered once a day for 10 days by flow cytometric analysis (reference value: 4.5 %); type: functional; details: time 10 day
Mus musculus [5] = experiment: In vivo activation of AhR in C57BL/6 mouse assessed as increase in CYP1A1 mRNA expression at 40 mg/kg, po administered once a day for 10 days by qRT-PCR analysis; type: functional, organism-based; details: time 10.0 day
[6] = Induction of cell differentiation in C57BL/6 mouse naive regulatory T cells assessed as increase in cell frequency at 3 uM incubated for 72 hrs by flow cytometric analysis (reference value: 24.9%); type: functional
Mus musculus [7] = experiment: Anti-colitis activity against DSS-induced ulcerative colitis C57BL/6 mouse model assessed as decrease in colon MPO activity at 40 mg/kg, po administered once a day for 10 days; type: functional, organism-based; details: time 10.0 day
[8] = Induction of cell differentiation in C57BL/6 mouse naive regulatory T cells assessed as increase in IL-10 mRNA level by measuring fold change at 3 uM incubated for 72 hrs by qRT-PCR analysis; type: functional
[9] = molecular target: T1, Aryl hydrocarbon receptor (Mus musculus, UniProt P30561); experiment: Activation of AhR transcription in C57BL/6 mouse naive T cells assessed as increase in CYP1A1 mRNA expression by measuring fold change at 3 uM by qRT-PCR analysis relative to control; type: cell-based; details: T-cell, read-out: FC
T1 sequence (P30561 whole entry): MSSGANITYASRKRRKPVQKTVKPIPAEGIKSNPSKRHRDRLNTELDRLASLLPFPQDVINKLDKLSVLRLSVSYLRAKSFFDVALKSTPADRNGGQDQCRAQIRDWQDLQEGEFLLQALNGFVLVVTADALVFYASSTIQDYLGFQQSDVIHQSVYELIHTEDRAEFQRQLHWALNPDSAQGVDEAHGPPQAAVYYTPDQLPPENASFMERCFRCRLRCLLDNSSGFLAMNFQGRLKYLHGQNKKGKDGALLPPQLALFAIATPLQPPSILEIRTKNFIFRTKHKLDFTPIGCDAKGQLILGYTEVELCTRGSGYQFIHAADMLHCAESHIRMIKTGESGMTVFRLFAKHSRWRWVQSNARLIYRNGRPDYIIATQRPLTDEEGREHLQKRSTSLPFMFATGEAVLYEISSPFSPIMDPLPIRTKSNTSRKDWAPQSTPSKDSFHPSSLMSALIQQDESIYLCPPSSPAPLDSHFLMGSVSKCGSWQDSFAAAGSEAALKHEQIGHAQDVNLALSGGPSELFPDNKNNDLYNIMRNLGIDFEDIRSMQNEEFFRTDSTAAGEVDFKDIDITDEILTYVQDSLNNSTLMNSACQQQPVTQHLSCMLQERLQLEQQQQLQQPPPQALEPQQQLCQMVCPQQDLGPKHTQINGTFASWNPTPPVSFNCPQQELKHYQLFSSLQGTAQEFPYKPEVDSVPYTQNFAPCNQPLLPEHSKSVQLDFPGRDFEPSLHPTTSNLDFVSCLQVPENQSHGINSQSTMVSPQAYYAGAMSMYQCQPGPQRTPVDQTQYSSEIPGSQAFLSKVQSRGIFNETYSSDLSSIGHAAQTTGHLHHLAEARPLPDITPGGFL

[10] = Induction of cell differentiation in C57BL/6 mouse naive regulatory T cells assessed as increase in […] mRNA level by measuring fold change at 3 uM incubated for 72 hrs by qRT-PCR analysis; type: functional
Mus musculus [11] = experiment: Anti-colitis activity in DSS-induced ulcerative colitis C57BL/6 mouse model assessed as CD4+CD25+Foxp3+ Treg cell percentage in spleen at 40 mg/kg, po administered once a day for 10 days by flow cytometric analysis (reference value: 3.3%); type: functional; details: time 10 day

| SMILES | Activity (Mus musculus [1]) [%] | Activity (Mus musculus [2]) [%] | Activity (Mus musculus [3]) | Activity (Mus musculus [4]) [%] | Activity (Mus musculus [5]) | Activity [6] [%] | Activity (Mus musculus [7]) | fold change (FC) [8] | fold induction at 3 µM [9] | fold change (FC) [10] | Activity (Mus musculus [11]) [%] |
| --- | --- | --- | --- | --- | --- | --- | --- | --- | --- | --- | --- |
| Nc1ccc(O)c(C(=O)O)c1 [MESALAMINE] | 2.6 | 4.4 | Active |  |  |  |  |  |  |  |  |
| c1ccc2c(Cc3c[nH]c4ccccc34)c[nH]c2c1 [ARUNDINE] |  |  |  | 6.8 | Active | 34.3 | Active | 2 | 1.9 | 2.1 | 2.7 |
